Data from the supplement of paper PMC10307832.

Assays:
Assay in all cases: relative viability (nuclei count vs DMSO), 5 days (fraction); higher = more cells survive
Elesclomol + Pemetrexed = compound: CN(NC(=O)CC(=O)NN(C)C(=S)c1ccccc1)C(=S)c1ccccc1 [Elesclomol] + Nc1nc2[nH]cc(CCc3ccc(C(=O)N[C@@H](CCC(=O)O)C(=O)O)cc3)c2c(=O)[nH]1 [Pemetrexed] (partner 0.2 µM)
Procedure, shortened: (§1)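 Five library-drug doses in √10 steps were combined with a fixed anchor-drug dose, or a single drug was given alone, by pin tool to lung cancer cell lines in 1536-well plates the day after seeding. Nuclei were stained and counted after 5 days. Relative viability is the nuclei count in treated wells over that in vehicle wells, taken as the median of duplicate plates.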

Elesclomol + Foretinib = compound: CN(NC(=O)CC(=O)NN(C)C(=S)c1ccccc1)C(=S)c1ccccc1 [Elesclomol] + COc1cc2c(Oc3ccc(NC(=O)C4(C(=O)Nc5ccc(F)cc5)CC4)cc3F)ccnc2cc1OCCCN1CCOCC1 [Foretinib] (partner 0.25 µM)
Procedure, shortened: as §1

Elesclomol + Navitoclax = compound: CN(NC(=O)CC(=O)NN(C)C(=S)c1ccccc1)C(=S)c1ccccc1 [Elesclomol] + CC1(C)CCC(c2ccc(Cl)cc2)=C(CN2CCN(c3ccc(C(=O)NS(=O)(=O)c4ccc(N[C@H](CCN5CCOCC5)CSc5ccccc5)c(S(=O)(=O)C(F)(F)F)c4)cc3)CC2)C1 [Navitoclax] (partner 0.5 µM)
Procedure, shortened: as §1

Elesclomol + OSI-027 = compound: CN(NC(=O)CC(=O)NN(C)C(=S)c1ccccc1)C(=S)c1ccccc1 [Elesclomol] + COc1cccc2cc(-c3nc([C@H]4CC[C@H](C(=O)O)CC4)n4ncnc(N)c34)[nH]c12 [OSI-027] (partner 0.5 µM)
Procedure, shortened: as §1

Elesclomol + Tozasertib = compound: CN(NC(=O)CC(=O)NN(C)C(=S)c1ccccc1)C(=S)c1ccccc1 [Elesclomol] + Cc1cc(Nc2cc(N3CCN(C)CC3)nc(Sc3ccc(NC(=O)C4CC4)cc3)n2)n[nH]1 [Tozasertib] (partner 0.1 µM)
Procedure, shortened: as §1

Cell Line | relative viability (Elesclomol + Pemetrexed; first compound 0.003162 µM) | relative viability (Elesclomol + Pemetrexed; first compound 0.01 µM) | relative viability (Elesclomol + Pemetrexed; first compound 0.03162 µM) | relative viability (Elesclomol + Pemetrexed; first compound 0.1 µM) | relative viability (Elesclomol + Foretinib; first compound 0.003162 µM) | relative viability (Elesclomol + Foretinib; first compound 0.01 µM) | relative viability (Elesclomol + Foretinib; first compound 0.03162 µM) | relative viability (Elesclomol + Foretinib; first compound 0.1 µM) | relative viability (Elesclomol + Navitoclax; first compound 0.003162 µM) | relative viability (Elesclomol + Navitoclax; first compound 0.01 µM) | relative viability (Elesclomol + Navitoclax; first compound 0.03162 µM) | relative viability (Elesclomol + Navitoclax; first compound 0.1 µM) | relative viability (Elesclomol + OSI-027; first compound 0.003162 µM) | relative viability (Elesclomol + OSI-027; first compound 0.01 µM) | relative viability (Elesclomol + OSI-027; first compound 0.03162 µM) | relative viability (Elesclomol + OSI-027; first compound 0.1 µM) | relative viability (Elesclomol + Tozasertib; first compound 0.003162 µM) | relative viability (Elesclomol + Tozasertib; first compound 0.01 µM) | relative viability (Elesclomol + Tozasertib; first compound 0.03162 µM) | relative viability (Elesclomol + Tozasertib; first compound 0.1 µM)
NCI-H1755 | 0.383 | 0.359 | 0.426 | 0.348 | 0.935 | 0.887 | 0.922 | 0.474 | 0.968 | 0.847 | 0.82 | 0.158 | 0.756 | 0.457 | 0.66 | 0.419 | 0.625 | 0.47 | 0.421 | 0.288
NCI-H1793 | 0.833 | 0.643 | 0.855 | 0.102 | 0.613 | 0.618 | 0.658 | 0.193 | 0.349 | 0.349 | 0.382 | 0.135 | 0.276 | 0.197 | 0.262 | 0.228 | 0.356 | 0.286 | 0.348 | 0.132
NCI-H1915 | 0.499 | 0.456 | 0.481 | 0.286 | 1.05 |  | 1.08 | 0.793 | 0.784 |  | 0.792 | 0.799 | 0.616 |  | 0.587 | 0.357 | 0.412 |  | 0.397 | 0.258
NCI-H1944 | 0.613 | 0.724 | 0.572 | 0.189 | 0.93 | 0.868 | 0.838 | 0.358 | 1.14 | 1.11 | 1.01 | 0.904 | 0.454 | 0.306 | 0.389 | 0.299 | 0.236 | 0.251 | 0.23 | 0.139
NCI-H1975 | 0.298 | 0.292 | 0.17 | 0.133 | 0.943 | 0.832 | 0.311 | 0.164 | 1 | 1.1 | 0.209 | 0.12 | 0.863 | 0.455 | 0.392 | 0.0658 | 0.733 | 0.517 | 0.118 | 0.0791
NCI-H1993 | 0.707 | 0.6 | 0.486 | 0.366 | 0.772 | 0.671 | 0.553 | 0.533 | 0.934 | 1.19 | 0.63 | 0.508 | 0.552 | 0.498 | 0.616 | 0.513 | 0.568 | 0.491 | 0.452 | 0.401
NCI-H2009 | 1.02 | 0.982 | 0.312 | 0.115 | 1.2 | 0.97 | 0.207 | 0.171 | 1.17 | 0.567 | 0.277 | 0.11 | 0.448 | 0.131 | 0.126 | 0.0949 | 0.684 | 0.219 | 0.112 | 0.0954
NCI-H2023 | 0.172 | 0.128 | 0.0613 | 0.0421 | 0.67 | 0.565 | 0.0376 | 0.051 | 0.99 | 0.455 | 0.111 | 0.102 | 0.351 | 0.128 | 0.0471 | 0.0389 | 0.282 | 0.192 | 0.0576 | 0.0475
NCI-H2085 | 0.911 | 0.902 | 0.64 | 0.168 | 1.09 | 0.658 | 0.462 | 0.271 | 1.22 | 0.725 | 0.657 | 0.312 | 0.919 | 0.727 | 0.476 | 0.268 | 0.76 | 0.703 | 0.529 | 0.457
NCI-H2087 | 0.588 | 0.685 | 0.609 | 0.108 | 0.936 | 0.767 | 0.577 | 0.299 | 0.924 | 0.728 | 0.499 | 0.469 | 0.422 | 0.283 | 0.357 | 0.225 | 0.18 | 0.187 | 0.158 | 0.0781
NCI-H2126 | 0.766 | 0.59 | 0.686 | 0.542 | 1.19 | 0.943 | 0.435 | 0.201 | 0.89 | 0.826 | 0.908 | 0.827 | 0.826 | 0.637 | 0.455 | 0.246 | 0.792 | 0.751 | 0.359 | 0.337
NCI-H2170 | 0.28 | 0.28 | 0.27 | 0.26 | 1.02 | 1.03 | 0.977 | 0.764 | 0.628 | 0.475 | 0.493 | 0.245 | 0.793 | 0.577 | 0.739 | 0.583 | 0.715 | 0.641 | 0.703 | 0.491
NCI-H2228 | 0.307 | 0.308 | 0.143 | 0.0377 | 0.863 | 0.844 | 0.252 | 0.054 | 0.739 | 0.586 | 0.325 | 0.0519 | 0.568 | 0.27 | 0.188 | 0.0467 | 0.242 | 0.257 | 0.166 | 0.051
NCI-H2347 | 0.401 | 0.372 | 0.411 | 0.441 | 1.06 | 0.701 | 0.482 | 0.942 | 0.809 | 0.668 | 0.905 | 0.299 | 0.389 | 0.389 | 0.173 | 0.211 | 0.683 | 0.424 | 0.264 | 0.248
NCI-H2405 | 1.03 | 0.707 | 0.323 | 0.297 | 1.04 | 0.663 | 0.336 | 0.292 | 0.619 | 0.178 | 0.137 | 0.132 | 0.651 | 0.473 | 0.339 | 0.272 | 0.691 | 0.47 | 0.292 | 0.315
NCI-H3122 | 0.177 | 0.229 | 0.194 | 0.128 | 1.01 | 0.961 | 0.839 | 0.135 | 1.05 | 1.03 | 1.01 | 0.247 | 0.955 | 0.198 | 0.144 | 0.0943 | 0.329 | 0.118 | 0.0927 | 0.0898
